These are literature values, as cited in patent US6800456B2, “Modified forms of hepatitis C NS3 protease for facilitating inhibitor screening and structural studies of protease:inhibitor complexes” (Bristol-Myers Squibb Company, priority 1999, dated 2004).

This data set has as its target HCV protease (Hepatitis C virus genotype 1a, UniProt P26664). The settings on record: Ingallinella et al., Biochemistry 37, 8906-8914 (1998).

Square brackets hold non-standard residues; d marks the D form. Cha = N[C@@H](CC1CCCCC1)C(=O)O

HCV protease, sequence (P26664 1027-1206 limits assumed, other chains not shown): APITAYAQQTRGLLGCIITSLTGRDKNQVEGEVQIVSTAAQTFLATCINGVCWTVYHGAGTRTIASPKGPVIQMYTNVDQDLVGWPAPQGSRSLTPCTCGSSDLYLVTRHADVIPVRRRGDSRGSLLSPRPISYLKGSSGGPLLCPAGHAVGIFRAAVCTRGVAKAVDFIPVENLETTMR

As usually defined, the IC50 is the midpoint of a concentration-inhibition curve. Take Ac-D[dE]LI[Cha]C-OH: the IC50 was 15 nM.
